Measured values from patent US20200179511A1, “BCMA-TARGETING AGENT, AND COMBINATION THERAPY WITH A GAMMA SECRETASE INHIBITOR” (Novartis AG, priority 2017, published 2020).

Columns and labels:
shed/soluble BCMA = experiment: GSI inhibition of shed/soluble BCMA (sBCMA), ELISA of supernatants, 72 hours, serial dilutions (Example 2, FIG. 8, Table 3); assay type: cell-based, human; details: inhibition of BCMA shedding / enhancement of membrane BCMA
Procedure: Target human cancer cell lines expressing various levels of human BCMA (NCI-H929^[High], MM1S^[Med], U266B1^[low]) were all transduced to constitutively express luciferase, which is used to measure cell viability/survival with the BrightGlo reagent (Promega E2650). Target cells were plated 30,000 cells per well in a 96 well plate (Costar 3904) together with serial dilutions of a panel of gamma secretase inhibitors (Table 2). The plate was incubated at 37° C./5% CO2 for 72 hours, followed by measurements of cell viability (BrightGlo, Promega # E2650) according to vendor protocol. In a replicate set of assay plates, cell culture supernatants were collected by centrifugation and quantified for levels of soluble BCMA by ELISA (R&D Systems, DY193), and the remaining cells were stained with a PE conjugated BCMA antibody (clone 19F2, Biolegend 357504) and analyzed by flow cytometry for BCMA cell surface expression levels.
Raw OD450 values from the BCMA ELISA were plotted together with the mean fluorescent intensity values from flow cytometry analysis of cells stained with anti-BCMA antibody, and are shown for MM1S cells treated with the various GSIs in FIG. 8. Table 3 summarizes the EC50 results of all the GSIs on the three BCMA-expressing cell lines.

[1] = tested on: BCMA cell surface expression; experiment: BCMA cell surface expression by flow cytometry (PE conjugated BCMA antibody) with or without GSI treatment (Example 1, FIG. 2); assay type: cell-based, human; details: BCMA-expressing multiple myeloma cell lines
Procedure: BCMA expressing cell lines were also treated overnight with and without GSIs. Cell culture supernatants were collected and quantified for levels of soluble BCMA by ELISA (R&D Systems, # DY193). Additionally, remaining cells were pelleted, stained with a PE conjugated BCMA antibody (clone 19F2, Biolegend #357504) and analyzed by flow cytometry for BCMA cell surface expression levels.
BCMA cell surface expression level was determined by flow cytometry on cell lines with or without GSI treatment.

Row | Compound | efficacious concentrations among the panel of GSIs (rank of potency) (shed/soluble BCMA) | cell surface expression of BCMA [1]
1 | C[C@H](c1ccc(F)cc1CCCC(=O)O)N(c1cc(F)ccc1F)S(=O)(=O)c1ccc(Cl)cc1 [BMS-299897] | least | 
2 | C[C@H](NC(=O)Cc1cc(F)cc(F)c1)C(=O)N[C@H](C(=O)OC(C)(C)C)c1ccccc1 [DAPT] |  | strongly enhances
3 | C[C@H](NC(=O)[C@@H](O)c1cc(F)cc(F)c1)C(=O)N[C@@H]1C(=O)N(C)c2ccccc2-c2ccccc21 [LY-411575, (S)-2-((S)-2-(3,5-difluorophenyl)-2-hydroxyacetamido)-N—((S)-5-methyl-6-oxo-6,7-dihydro-5H-dibenzo[b,d]azepin-7-yl)propanamide] | most potent | strongly enhances
